Results: patent US12144864B2, “Tubulysins and protein-tubulysin conjugates” (Regeneron Pharmaceuticals, Inc., priority 2018, dated 2024)
Like-named read-outs stand apart in the source and are kept apart here.

How the values were obtained:
[1] = tested on: HL60/MX2 cells; assay: Cytotoxicity in panel of MDR cell lines, HL60/MX2 (72 h and 144 h); format: cell-based, human; settings: for IC50: Homo sapiens
How it was run: (§1)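 Viability was measured as ATP luminescence (CellTiter-Glo) after 72 h and 144 h payload exposure, using 1:3 dilution series. Each line had 1000 cells/well: H69AR in RPMI with 20% FBS, HCT-15 and HL60/MX2 in RPMI with 10% FBS, and MES-SA/MX2 in 1:1 Waymouth's:McCoy's with 10% FBS. Values are four-parameter logistic IC50 and % kill (100 − % viable) at the highest dose.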

[2] = tested on: T47D cells; assay: Cell-based killing assay of payloads (CellTiter-Glo), T47D cells; parameters: species or system human; settings: 5-day incubation
How it was run: (§2)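 Cells plated at 4000/well in line-specific complete medium, grown overnight, then exposed to 1:3 serial dilutions of payload (100 nM to […]) for 5 days. ATP-based CellTiter-Glo luminescence read; IC50 from four-parameter logistic 10-point fit, and % kill at top concentration as 100 − % viable.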

[3] = tested on: H69AR cells; assay: Cytotoxicity in panel of MDR cell lines, H69AR (72 h and 144 h); format: cell-based, human; settings: for IC50: Homo sapiens
How it was run: as §1

[4] = tested on: C4-2 cells; assay: Cell-based killing assay of payloads (CellTiter-Glo), C4-2 cells; parameters: species or system human; settings: 5-day incubation
How it was run: as §2

[5] = tested on: HEK293 cells; assay: Cell-based killing assay of payloads (CellTiter-Glo), HEK293 cells; parameters: species or system human; settings: 5-day incubation
How it was run: as §2

[6] = tested on: HCT-15 cells; assay: Cytotoxicity in panel of MDR cell lines, HCT-15 (72 h and 144 h); format: cell-based, human; settings: for IC50: Homo sapiens
How it was run: as §1

[7] = tested on: C4-2 cells; assay: Cytotoxicity of anti-STEAP2 ADCs, payloads and reference compounds in C4-2 cells; format: cell-based, human
Description: (§3) To test the ability of the disclosed tubulysin payloads to kill human cell lines, an in vitro cytotoxicity assay was performed. In vitro cytotoxicity of the disclosed payloads, as well as reference compounds, were evaluated using the CellTiter-Glo Assay Kit (Promega, Cat #G7573), in which the quantity of ATP present is used to determine the number of viable cells in culture. For the assay, C4-2, HEK293, or T47D cells were seeded at 4000 cells/well on Nunclon white 96-well plates in complete growth medium (DME high glucose:Ham's F12 at 4:1, 10% FBS, 100 units/ml Penicillin, 100 ug/ml streptomycin, 53 ug/ml glutatmine, 10 ug/ml insulin, 220 ng/ml biotin, 12.5 pg/ml T3, 12.5 ug/ml Adenine, 4 ug/ml transferrin for C42 cells; DME high glucose, 10% FBS, 100 units/ml Penicillin, 100 ug/ml streptomycin, 53 ug/ml glutatmine for HEK293; RPMI, 10% FBS, 100 units/ml Penicillin, 100 ug/ml streptomycin, 53 ug/ml glutatmine, 10 ug/ml insulin, 10 mM HEPEs, 200 nM Sodium Pyruvate for T47D cells) and grown overnight at 37° C. in 5% CO2. For cell viability curves, 1:3 serially diluted payloads were added to the cells at final concentrations ranging from 100 nM to […], including a no treatment control group, and were then incubated for 5 days. After the 5-day incubation, cells were incubated at room temperature with 100 μL of CellTiter-Glo reagents for 10 minutes. Relative luminescence units (RLU) were determined on a Victor plate reader (PerkinElmer). The IC50 values were determined from a four-parameter logistic equation over a 10-point response curve (GraphPad Prism). All IC50 values are expressed in molar (M) concentration. The percent cell killing (% kill) at the maximum concentration tested was estimated from the following formula (100−% viable cells). Averages±standard deviation (SD) are included where replicate experiments were performed.
To further test the ability of the disclosed tubulysin payloads, reference compounds, and antibody drug conjugates using these payloads, a cytotoxicity assay was performed using C4-2 cells as described in this example (see above). For these studies, anti-STEAP2 antibodies were conjugated to select tubulysins payloads, and the compounds were tested at concentrations starting at 100 nM with 3-fold serial dilution. All IC50 values are expressed in nM concentration and the percent cell killing at the maximum concentration tested was estimated from the following formula (100−% viable cells).

[8] = tested on: MES-SA/MX2 cells; assay: Cytotoxicity in panel of MDR cell lines, MES-SA/MX2 (72 h and 144 h); format: cell-based, human; settings: for IC50: Homo sapiens
How it was run: as §1

[9] = tested on: HCT15 cells; assay: cells; format: cell-based, human; settings: HCT15 cells
How it was run: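 HCT15 colorectal carcinoma cells, 1000 per well in RPMI/10% FBS, with or without 5 ug/mL verapamil, exposed to 1:3 serially diluted payloads for 5 days at 37 °C. Viability measured by CellTiter-Glo ATP luminescence; IC50 from four-parameter logistic fit of a 10-point curve, % kill at top concentration.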

[10] = tested on: HCT15/PRLR cells; assay: Cytotoxicity of anti-PRLR tubulysin ADCs and payloads in HCT15/PRLR cells with or without Verapamil; format: cell-based, human; settings: for IC50: Homo sapiens, HCT-15
Description: as §3
Bioassays were developed to assess the efficacy of an anti-PRLR antibody conjugated with the disclosed tubulysin payloads and reference payloads. It was developed to assess the activity of tubulysin payloads after internalization of an anti-PRLR-tubulysin ADC into cells, release of the payload, and subsequent cytotoxicity. For this assay, a HCT15 line was engineered to express human full length PRLR (accession #NP_000940.1). The resulting stable cell line is referred to herein as HCT15/PRLR. In vitro cytotoxicity of the disclosed payloads, reference compounds, and tested ADCs were evaluated similarly as described in this example using HCT15/PRLR cells with or without […] of Verapamil diluted in normal culture medium. The compounds were tested at concentrations starting at 100 nM with 3-fold serial dilution. All IC50 values are expressed in nM concentration and the percent cell killing (% kill) at the maximum concentration tested was estimated from the following formula (100−% viable cells).

[11] = target: T1, STEAP2 endogenously expressed on C4-2 cells (human, UniProt Q8NFT2 1-490); assay: cell-based or functional assay
T1 sequence (looked up): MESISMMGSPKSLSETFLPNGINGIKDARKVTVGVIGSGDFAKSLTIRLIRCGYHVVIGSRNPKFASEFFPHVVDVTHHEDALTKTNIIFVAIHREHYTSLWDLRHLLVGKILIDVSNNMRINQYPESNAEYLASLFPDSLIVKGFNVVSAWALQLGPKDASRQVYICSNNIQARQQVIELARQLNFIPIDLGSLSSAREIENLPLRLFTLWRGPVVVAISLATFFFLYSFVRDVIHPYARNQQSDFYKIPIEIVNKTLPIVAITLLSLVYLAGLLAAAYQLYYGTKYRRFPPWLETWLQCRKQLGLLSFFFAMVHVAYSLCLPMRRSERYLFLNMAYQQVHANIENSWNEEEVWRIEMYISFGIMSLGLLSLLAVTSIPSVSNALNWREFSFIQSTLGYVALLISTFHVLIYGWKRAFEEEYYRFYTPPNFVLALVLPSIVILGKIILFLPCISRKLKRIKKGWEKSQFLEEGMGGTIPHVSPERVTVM

[12] = tested on: STEAP2 positive C4-2 prostate cancer xenografts; assay: In vivo efficacy of anti-STEAP2 ADCs in C4-2 prostate cancer xenografts in SCID mice; parameters: species or system mouse; settings: single dose 2.5 mg/kg via tail vein; end of study
Description: To determine the in vivo efficacy of anti-STEAP2 antibodies conjugated to tubulysins, studies were performed in immunocompromised mice bearing STEAP2 positive C4-2 prostate cancer xenografts.
For the assay, 7.5×10^6 C4-2 cells (ATCC, Cat #CRL-3314), which endogenously express STEAP2, were suspended in Matrigel (BD Biosciences, Cat #354234) and implanted subcutaneously into the left flank of male CB17 SCID mice (Taconic, Hudson NY). Once tumors had reached an average volume of 220 mm^3 (around Day 15), mice were randomized into groups of 7 and given a single dose of either anti-STEAP2 conjugated antibodies (anti-STEAP2-LP3, anti-STEAP2-LP4, anti-STEAP2-MMAE), isotype control conjugated antibody, or vehicle at 2.5 mg/kg via tail vein injection. Tumors were measured with calipers twice a week until the average size of the vehicle group reached 1500 mm^3. Tumor size was calculated using the formula (length×width^2)/2 and the average tumor size+/−SEM was then calculated. Tumor growth inhibition was calculated according to the following formula: (1−((Tfinal−Tinitial)/(Cfinal−Cinitial)))*100, where treated group (T) and control group (C) represent the mean tumor mass on the day the vehicle group reached 1500 mm^3.

[13] = at maximum concentration tested

## C#CCCCON(C(=O)[C@@H](NC(=O)[C@H]1CCCCN1C)[C@@H](C)CC)[C@H](C[C@@H](OC(C)=O)c1nc(C(=O)N[C@@H](Cc2ccc(N)cc2)CC(C)(C)C(=O)O)cs1)C(C)C [Ve, (4S)-4-({2-[(1R,3R)-1-(Acetyloxy)-4-methyl-3-[(2S,3S)-3-methyl-2-{[(2R)-1-methylpiperidin-2-yl]formamido}-N-(pent-4-yn-1-yloxy)pentanamido]pentyl]-1,3-thiazol-4-yl}formamido)-5-(4-aminophenyl)-2,2-dimethylpentanoic acid]
[1]; 72 h incubation
  HL60/MX2 % Kill 72 h: 98.3%
[1]; 144 h incubation
  HL60/MX2 % Kill 144 h: 100%
[1]; 72 h incubation, read-out: HL60/MX2 IC50 72 h
  IC50: < 0.015 nM
[1]; 144 h incubation, read-out: HL60/MX2 IC50 144 h
  IC50: < 0.015 nM
[2]; Homo sapiens, T47D, 120 h
  IC50: 0.0731 nM
[2]; [13]
  T47D % Kill: 69.8%
[3]; 72 h incubation
  H69AR % Kill 72 h: 96.6%
[3]; 144 h incubation
  H69AR % Kill 144 h: 99.5%
[3]; 72 h incubation, read-out: H69AR IC50 72 h
  IC50: 0.331 nM
[3]; 144 h incubation, read-out: H69AR IC50 144 h
  IC50: 0.559 nM
[4]; Homo sapiens, C4-2, 120 h, average ± SD where replicates
  IC50: < 0.047 nM
[4]; at maximum concentration tested (100 − % viable cells)
  C4-2 % Kill: 92.6%
[5]; Homo sapiens, HEK293, 120 h
  IC50: 0.103 nM
[5]; [13]
  HEK293 % Kill: 88.5%
[6]; 72 h incubation
  HCT-15 % Kill 72 h: 97.5%
[6]; 144 h incubation
  HCT-15 % Kill 144 h: 99.7%
[6]; 72 h incubation, read-out: HCT-15 IC50 72 h
  IC50: 0.0922 nM
[6]; 144 h incubation, read-out: HCT-15 IC50 144 h
  IC50: 0.158 nM
[7]; Homo sapiens, top concentration 100 nM, 3-fold serial dilution
  IC50: 0.063 nM
[7]; [13]
  % kill: 99%
[8]; 72 h incubation
  MES-SA/MX2 % Kill 72 h: 98.9%
[8]; 144 h incubation
  MES-SA/MX2 % Kill 144 h: 100%
[8]; 72 h incubation, read-out: MES-SA/MX2 IC50 72 h
  IC50: 0.52 nM
[8]; 144 h incubation, read-out: MES-SA/MX2 IC50 144 h
  IC50: 0.734 nM
[9]; with 5 ug/mL Verapamil, maximum % cell killing
  HCT-15 + verapamil % Kill: 98.2 ± 1.2%
[9]; with 5 ug/mL Verapamil, read-out: HCT-15 + verapamil IC50
  IC50: 0.0654 nM
[9]; without Verapamil, maximum % cell killing
  HCT-15 % Kill: 98.6 ± 0.7%
[9]; Homo sapiens, HCT-15, without Verapamil, read-out: HCT-15 IC50
  IC50: 0.273 nM
[10]; with Verapamil, read-out: IC50 (nM) on HCT15/PRLR w/ Verapamil
  IC50: 0.033 nM
[10]; without Verapamil, read-out: IC50 (nM) on HCT15/PRLR w/o Verapamil
  IC50: 0.203 nM
[10]; with Verapamil, at maximum concentration tested
  % kill on HCT15/PRLR w/ Verapamil: 99%
[10]; without Verapamil, at maximum concentration tested
  % kill on HCT15/PRLR w/o Verapamil: 99%

B1: Anti-STEAP2 N297Q Ab-LP3 (antibody, V domains shown)
VH: QVQLVESGGGVVQPGRSLRLSCVASGFTISSYGMNWVRQAPGKGLEWVAVISYDGGNKYSVDSVKGRFTISRDNSKNTLYLQMNSLRAEDSAVYYCARGRYFDLWGRGTLVTVSS
VL: DIQMTQSPSTLSASVGDRVTITCRASQSISSWLAWYQQKPGRAPNLLISKASSLKSGVPSRFSGSGSGTEFTLTVSSLQPDDFATYYCQQYYSYSYTFGQGTKLEIK
modifications: N297Q (EU numbering) in the heavy chain constant region; linker-payload LP3 (payload IVd) clicked to azido-PEG3-amine that transglutaminase put on heavy chain glutamines; DAR 3.8 (Table 7)
[11]
  % kill, C4-2 cells: 99%
  IC50 (nM), cytotoxicity in C4-2 cells (CellTiter-Glo): 0.097 nM

B2: Anti-STEAP2-MMAE (antibody, V domains shown)
VH: B1 VH
VL: B1 VL
modifications: conjugated to MMAE (payload of LP8, reference linker-payload); site of conjugation and DAR not stated
[12]
  Average Final Tumor size mm^3 (mean ± SEM): 475 ± 118 mm^3
  Average Tumor Growth Inhibition (%): 81%
[11]
  % kill, C4-2 cells: 99%
  IC50 (nM), cytotoxicity in C4-2 cells (CellTiter-Glo): 0.53 nM

B3: Anti-STEAP2 N297Q Ab-LP4 (antibody, V domains shown)
VH: B1 VH
VL: B1 VL
modifications: N297Q (EU numbering) in the heavy chain constant region; linker-payload LP4 (payload Ve) clicked to azido-PEG3-amine that transglutaminase put on heavy chain glutamines; DAR 3.8 (Table 7)
[11]
  % kill, C4-2 cells: 99%
  IC50 (nM), cytotoxicity in C4-2 cells (CellTiter-Glo): 0.15 nM

B4: Anti-STEAP2-LP3 (conjugate)
VH: B1 VH
VL: B1 VL
[12]
  Average Final Tumor size mm^3 (mean ± SEM): 115 ± 6 mm^3
  Average Tumor Growth Inhibition (%): 108%
